Measured values taken from PubChem BioAssay (NCI).
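Results reflect a 48-hour exposure of cells in 96-well plates to compound at five concentrations. GI50 = concentration required for 50% inhibition of growth. TGI denotes the concentration required for complete inhibition of growth.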

Experiments:
Assay in all cases: NCI tumour cell line growth inhibition, 48 h
A498 renal = system: A498 renal
A549 NSCLC = system: A549 NSCLC
EKVX NSCLC = system: EKVX NSCLC
HCT-116 colon = system: HCT-116 colon
HOP-62 NSCLC = system: HOP-62 NSCLC
MCF7 breast = system: MCF7 breast
OVCAR-4 ovarian = system: OVCAR-4 ovarian
SK-MEL-28 melanoma = system: SK-MEL-28 melanoma
SK-MEL-5 melanoma = system: SK-MEL-5 melanoma
TK-10 renal = system: TK-10 renal
HS 578T breast = system: HS 578T breast

Compound: CSc1ncnc2c1ncn2CCC(=O)OC(C)(C)C
- TGI (A498 renal): > 100 µM
- TGI (A549 NSCLC): > 100 µM
- TGI (EKVX NSCLC): > 100 µM
- TGI (HCT-116 colon): > 100 µM
- TGI (HOP-62 NSCLC): > 100 µM
- TGI (MCF7 breast): > 100 µM
- TGI (OVCAR-4 ovarian): > 100 µM
- TGI (SK-MEL-28 melanoma): > 100 µM
- TGI (SK-MEL-5 melanoma): > 100 µM
- TGI (TK-10 renal): > 100 µM

Compound: O=C1C(c2c(O)[nH]c3ccc(F)cc23)=Nc2ccccc21
- TGI (A549 NSCLC): > 100 µM
- TGI (EKVX NSCLC): > 100 µM
- TGI (HCT-116 colon): > 100 µM
- TGI (HOP-62 NSCLC): > 100 µM
- TGI (HS 578T breast): > 100 µM
- TGI (MCF7 breast): > 100 µM
- TGI (SK-MEL-28 melanoma): > 100 µM
- TGI (SK-MEL-5 melanoma): > 100 µM
- TGI (TK-10 renal): > 100 µM

Compound: CC(C)C(=O)OCC1OC(n2c(Br)nc3c(=O)[nH]c(N)nc32)C(OC(=O)C(C)C)C1OC(=O)C(C)C (stereo not given)
- TGI (A549 NSCLC): > 100 µM
- TGI (EKVX NSCLC): > 100 µM
- TGI (HCT-116 colon): > 100 µM
- TGI (HOP-62 NSCLC): > 100 µM
- TGI (HS 578T breast): > 100 µM
- TGI (MCF7 breast): > 100 µM

Compound: NCc1ccccc1-c1c2nc(c(-c3ccccc3CN)c3ccc([nH]3)c(-c3ccccc3CN)c3nc(c(-c4ccccc4CN)c4ccc1[nH]4)C=C3)C=C2
- TGI (A549 NSCLC): 46.9 µM
- TGI (EKVX NSCLC): 48.7 µM
- TGI (HCT-116 colon): 32.5 µM
- TGI (HOP-62 NSCLC): 60.4 µM
- TGI (OVCAR-4 ovarian): 51.2 µM
- TGI (SK-MEL-28 melanoma): 43.4 µM
- TGI (SK-MEL-5 melanoma): 63.7 µM
- TGI (TK-10 renal): 63.1 µM

Compound: Cc1c(N=Nc2ccc(Cl)cc2)c(-c2ccccc2)n(C2OC(CO)C(O)C(O)C2O)c(=S)c1C#N (stereo not given)
- TGI (A498 renal): 21.5 µM
- TGI (A549 NSCLC): 35.3 µM
- TGI (HCT-116 colon): 28.2 µM
- TGI (HOP-62 NSCLC): 34.4 µM
- TGI (HS 578T breast): 51.6 µM
- TGI (MCF7 breast): 34.5 µM
- TGI (OVCAR-4 ovarian): 36 µM
- TGI (SK-MEL-28 melanoma): 28.7 µM
- TGI (SK-MEL-5 melanoma): 25.8 µM
- TGI (TK-10 renal): 44.4 µM

Compound: Cn1c(=O)c(-c2ccccc2)c(N=[N+]=[N-])c2ccccc21
- TGI (A498 renal): > 100 µM
- TGI (A549 NSCLC): > 100 µM
- TGI (HCT-116 colon): > 100 µM
- TGI (HOP-62 NSCLC): > 100 µM
- TGI (HS 578T breast): > 100 µM
- TGI (MCF7 breast): > 100 µM
- TGI (OVCAR-4 ovarian): > 100 µM
- TGI (SK-MEL-28 melanoma): > 100 µM
- TGI (SK-MEL-5 melanoma): > 100 µM
- TGI (TK-10 renal): > 100 µM

Compound: O=c1c(/C=C/c2c(O)ccc3ccccc23)nnc2sc(-c3cccc(Br)c3)nn12
- TGI (A498 renal): > 100 µM
- TGI (A549 NSCLC): > 100 µM
- TGI (EKVX NSCLC): 98.1 µM
- TGI (HCT-116 colon): > 100 µM
- TGI (HOP-62 NSCLC): > 100 µM
- TGI (HS 578T breast): > 100 µM
- TGI (MCF7 breast): 84.4 µM
- TGI (OVCAR-4 ovarian): 31.9 µM
- TGI (SK-MEL-28 melanoma): > 100 µM
- TGI (SK-MEL-5 melanoma): 37.5 µM

Compound: CN(C)CCC(=O)c1ccccc1
- TGI (A498 renal): > 95.5 µM
- TGI (A549 NSCLC): > 82.1 µM
- TGI (EKVX NSCLC): > 68.8 µM
- TGI (HCT-116 colon): 55.4 µM
- TGI (HOP-62 NSCLC): > 100 µM
- TGI (OVCAR-4 ovarian): > 74.1 µM
- TGI (SK-MEL-28 melanoma): > 67.4 µM
- TGI (SK-MEL-5 melanoma): > 56.9 µM
- TGI (TK-10 renal): > 68.4 µM

Compound: COC(CNC(=O)C(C)NC(=O)/C=C/c1ccccc1)OC (stereo not given)
- TGI (A549 NSCLC): > 100 µM
- TGI (EKVX NSCLC): > 100 µM
- TGI (HCT-116 colon): > 100 µM
- TGI (HS 578T breast): > 100 µM
- TGI (MCF7 breast): > 100 µM
- TGI (SK-MEL-5 melanoma): > 100 µM
- TGI (TK-10 renal): > 100 µM

Compound: CN(C)C1(N(C)C)Oc2c(c(=O)n(C)c(=O)n2C)C(c2ccccc2)C1(F)F (stereo not given)
- TGI (A498 renal): > 100 µM
- TGI (A549 NSCLC): > 100 µM
- TGI (EKVX NSCLC): > 100 µM
- TGI (HCT-116 colon): > 100 µM
- TGI (HOP-62 NSCLC): > 100 µM
- TGI (MCF7 breast): > 100 µM
- TGI (OVCAR-4 ovarian): > 100 µM
- TGI (SK-MEL-28 melanoma): > 100 µM
- TGI (SK-MEL-5 melanoma): > 100 µM
- TGI (TK-10 renal): > 100 µM

Compound: Cc1nc2c(nc1C)-c1[nH]c3c(c1C(=O)C2=O)CCCC3=O
- TGI (A498 renal): 21.5 µM
- TGI (A549 NSCLC): 16.3 µM
- TGI (EKVX NSCLC): 3.71 µM
- TGI (HOP-62 NSCLC): 6.76 µM
- TGI (HS 578T breast): > 59.2 µM
- TGI (MCF7 breast): 2.98 µM
- TGI (OVCAR-4 ovarian): 3.04 µM
- TGI (SK-MEL-28 melanoma): 3.16 µM
- TGI (SK-MEL-5 melanoma): 3.02 µM
- TGI (TK-10 renal): 34.8 µM

Compound: C=C(C)[C@@H]1CC[C@]2(C(=O)NC3CCCCC3)CC[C@]3(C)[C@H](CC[C@@H]4[C@@]5(C)CCCNC(C)(C)[C@@H]5CC[C@]43C)[C@@H]12
- GI50 (A498 renal): 14.3 µM
- TGI (A498 renal): 28.8 µM
- GI50 (TK-10 renal): 1.87 µM
- TGI (TK-10 renal): 3.6 µM

Compound: N#Cc1c(N)n(-c2cccc(C(=O)O)c2)c(=O)c2cc([N+](=O)[O-])ccc12
- TGI (A498 renal): > 100 µM
- TGI (A549 NSCLC): > 100 µM
- TGI (HCT-116 colon): > 100 µM
- TGI (HS 578T breast): > 100 µM
- TGI (OVCAR-4 ovarian): > 100 µM
- TGI (SK-MEL-28 melanoma): > 100 µM
- TGI (SK-MEL-5 melanoma): > 100 µM
- TGI (TK-10 renal): > 100 µM

Compound: N#CCCN(C(=O)Nc1ccccc1)[C@H]1CCCC[C@@H]1N(C(=O)Nc1ccccc1)c1ccccc1
- TGI (A549 NSCLC): > 100 µM
- TGI (EKVX NSCLC): > 100 µM
- TGI (HCT-116 colon): > 100 µM
- TGI (HOP-62 NSCLC): > 100 µM
- TGI (MCF7 breast): > 100 µM
- TGI (OVCAR-4 ovarian): > 100 µM
- TGI (SK-MEL-28 melanoma): > 100 µM
- TGI (SK-MEL-5 melanoma): > 100 µM
- TGI (TK-10 renal): > 100 µM

Compound: O=c1cc(-c2cccc3ccccc23)[nH]c2ncccc12
- GI50 (A549 NSCLC): 0.0216 µM
- TGI (A549 NSCLC): > 100 µM
- GI50 (EKVX NSCLC): 0.0239 µM
- TGI (EKVX NSCLC): > 100 µM
- TGI (HCT-116 colon): 21.3 µM
- TGI (HOP-62 NSCLC): > 100 µM
- GI50 (HS 578T breast): 0.0186 µM
- TGI (HS 578T breast): > 100 µM
- TGI (MCF7 breast): 4.25 µM
- GI50 (OVCAR-4 ovarian): 77.6 µM
- TGI (OVCAR-4 ovarian): > 100 µM
- GI50 (SK-MEL-28 melanoma): 0.0158 µM
- TGI (SK-MEL-28 melanoma): > 100 µM

Compound: COC(=O)c1cc2ccc(N)nc2[nH]c1=O
- TGI (A498 renal): > 100 µM
- TGI (A549 NSCLC): > 100 µM
- TGI (EKVX NSCLC): > 100 µM
- TGI (HCT-116 colon): > 100 µM
- TGI (HOP-62 NSCLC): > 100 µM
- TGI (MCF7 breast): > 100 µM
- TGI (OVCAR-4 ovarian): > 100 µM
- TGI (SK-MEL-28 melanoma): > 100 µM
- TGI (SK-MEL-5 melanoma): > 100 µM
- TGI (TK-10 renal): > 100 µM

Compound: O=C(Cn1c[n+](CC(=O)c2ccc(-c3ccccc3)cc2)c2ccccc21)Nc1cccc2cccnc12
- GI50 (A498 renal): 1.04 µM
- TGI (A498 renal): 4.84 µM
- GI50 (A549 NSCLC): 3.02 µM
- TGI (A549 NSCLC): 13 µM
- GI50 (EKVX NSCLC): 1.63 µM
- TGI (EKVX NSCLC): 4.13 µM
- GI50 (HS 578T breast): 1.7 µM
- TGI (HS 578T breast): 4.3 µM
- GI50 (SK-MEL-28 melanoma): 1.51 µM
- TGI (SK-MEL-28 melanoma): 2.83 µM
- GI50 (SK-MEL-5 melanoma): 1.73 µM
- TGI (SK-MEL-5 melanoma): 3.11 µM
- GI50 (TK-10 renal): 2.01 µM
- TGI (TK-10 renal): 3.74 µM

Compound: COc1ccc(P2(=S)OC(C)(C)C(C)(C)O2)cc1
- TGI (A549 NSCLC): > 100 µM
- TGI (EKVX NSCLC): > 100 µM
- TGI (HCT-116 colon): > 100 µM
- TGI (HOP-62 NSCLC): > 100 µM
- TGI (HS 578T breast): > 100 µM
- TGI (MCF7 breast): > 100 µM
- TGI (OVCAR-4 ovarian): > 100 µM
- TGI (SK-MEL-28 melanoma): > 100 µM
- TGI (SK-MEL-5 melanoma): > 100 µM
- TGI (TK-10 renal): > 100 µM

Compound: NNC(=O)c1n[nH]nc1C(=O)NN
- TGI (A549 NSCLC): > 100 µM
- TGI (HCT-116 colon): > 100 µM
- TGI (HOP-62 NSCLC): > 100 µM
- TGI (MCF7 breast): > 100 µM
- TGI (SK-MEL-5 melanoma): > 100 µM
- TGI (TK-10 renal): > 100 µM

Compound: CCCCNC(=S)Nc1nc(C(=O)NNC(=S)Nc2ccccc2)cs1
- TGI (A498 renal): 68 µM
- TGI (A549 NSCLC): > 100 µM
- TGI (EKVX NSCLC): > 100 µM
- TGI (HCT-116 colon): > 100 µM
- TGI (HOP-62 NSCLC): > 100 µM
- TGI (MCF7 breast): > 100 µM
- TGI (OVCAR-4 ovarian): > 100 µM
- TGI (SK-MEL-5 melanoma): > 100 µM
- TGI (TK-10 renal): > 100 µM

Compound: CC(OC(C)(C)C)[C@H](NC(=O)OCC(Cl)(Cl)Cl)C(=O)O (stereo not given in full)
- TGI (A498 renal): > 100 µM
- TGI (A549 NSCLC): > 100 µM
- TGI (EKVX NSCLC): > 100 µM
- TGI (HCT-116 colon): > 100 µM
- TGI (HOP-62 NSCLC): > 100 µM
- TGI (OVCAR-4 ovarian): > 100 µM
- TGI (SK-MEL-28 melanoma): > 100 µM
- TGI (SK-MEL-5 melanoma): > 100 µM
- TGI (TK-10 renal): > 100 µM

Compound: CC#CCOC(=O)c1ccccc1OC(C)=O
- TGI (A498 renal): > 100 µM
- TGI (EKVX NSCLC): > 100 µM
- TGI (HCT-116 colon): > 100 µM
- TGI (HOP-62 NSCLC): > 100 µM
- TGI (HS 578T breast): > 100 µM
- TGI (MCF7 breast): > 100 µM
- TGI (OVCAR-4 ovarian): > 100 µM
- TGI (SK-MEL-5 melanoma): > 100 µM
- TGI (TK-10 renal): > 100 µM
